Results taken from PMC10377753, “Pharmacokinetic and pharmacodynamic properties of polymyxin B in Escherichia coli and Klebsiella pneumoniae murine infection models” (Journal of Antimicrobial Chemotherapy, 2023).
Where a name gives a salt, the structure may show the parent alone. Bridge positions count the residues as written; N and C are the ends. Square brackets hold non-standard residues; d marks the D form. Peptide text beside a SMILES is read from it. * marks the point of attachment. X1 = CC[C@H](C)CCCCC(=O)*; Dab = NCC[C@H](N)C(=O)O

What was measured:
[1] = tested on: four E. coli and four K. pneumoniae strains; experiment: Dose-response study, thigh infection model, summary over all eight isolates; assay type: in vivo, Escherichia coli, Klebsiella pneumoniae; details: q6h dosing, mouse thigh infection
Procedure: Experiments were carried out in the Erasmus Laboratory Animal Science Centre in Rotterdam, The Netherlands in accordance with the EU Animal Directive 2010/63/EU 2010 directive[14] (licence number AVD101002016702) as described before,[15] with approval of the institutional Animal Welfare Body. Outbred female CD-1 mice obtained from Charles River Germany, weighing 20–25 g, 7–8 weeks old, were used in the experiments. The mice were housed under standard conditions with drink and feed supplied ad libitum.
Mice were rendered neutropenic by intraperitoneal injection of cyclophosphamide of 150 and 100 mg/kg, 4 days and 1 day before infection, respectively. […]
Animals were humanely euthanized 24 h (t = 24 h) after the first dose, unless the welfare of the animals necessitated earlier termination, following animal welfare regulations. […] The following day, colonies were counted and the number of cfu per thigh was calculated.
The drug effect was determined by the difference between the log10 cfu values at t = 0 h (mean value of two mice) and t = 24 h (value of individual mice) expressed as Δlog10 cfu. […]
A sigmoid maximum effect (Emax) model was fitted to the PK/PD index versus Δlog10 cfu data by non-linear regression, and static or a 1 log or 2 log kill effect were determined using GraphPad Prism 8.0 (GraphPad, Inc., San Diego, CA, USA). […]

[2] = Non-specific binding to ultrafiltration filter; assay type: physicochemical; details: LC-MS/MS
Procedure: The binding of polymyxin B to plasma proteins was determined via ultrafiltration. Polymyxins have a tendency to non-specifically bind to different kinds of material, including ultrafiltration filters. Thus, to correct for polymyxin B loss on the filter, an experiment was performed in which ultrafiltrated (UF) phosphate buffer was spiked with multiple polymyxin B concentrations (ranging from 0.75 to 8 mg/L) and subsequently concentrations were measured. […] Using this relationship, the non-specific binding (NSB) for each measured polymyxin B UF concentration was calculated. Correction for the measured polymyxin B UF concentration using this NSB value was according to the following formula: polymyxin B UF Corrected Concentration = Measured polymyxin B UF Concentration × (1−NSB).
Polymyxin B concentrations in plasma, BAL and ultrafiltrates were determined by a validated LC-MS/MS method,[18] with a lower limit of quantification (LOQ) of 0.2 mg/L for plasma and 0.05 mg/L for BAL fluid and ultrafiltrates. […] The residues were dissolved in 0.1 mL of 0.1% formic acid in water and analysed by LC-MS/MS. […] Polymyxin B was analysed on an XBridge C18 column (5 µm, 2.1 × 150 mm; Waters). […] Calibration curves of polymyxin B ranged from 0.1 to 10 mg/L for plasma and ultrafiltrates, and were quantified with a quadratic regression mode. […]

plasma proteins = details: mouse, spiked pooled plasma, ultracentrifugation; cited from earlier work
From the text: Protein binding of polymyxin B is known to be high. However, a difference was found between the current study (unbound fraction 20%) compared with previous studies (8.6% for polymyxin B,[8] 8.4% for colistin[5]), which affects the PTA. In the present study, ultrafiltration was used for determining the unbound fraction, whilst ultracentrifugation was used in the other studies. With the ultrafiltration method, correction for the NSB to the ultrafiltration membranes was needed. In addition, differences in mouse plasma used for determination of polymyxin B protein binding may (partly) explain the ...

gram-negative pathogens = details: previous studies; cited from earlier work
Procedure: To determine whether these targets are achieved in humans, the PTAs for the 200 mg q24h dose were calculated. It is clear that the degree of protein binding is essential herein and more clarity on the protein binding in human plasma is needed before an optimal dosing regimen can be recommended, since for a highly protein-bound drug a small error on the fu would yield important PTA differences.

CC[C@H](C)CCCCC(=O)N[C@@H](CCN)C(=O)N[C@H](C(=O)N[C@@H](CCN)C(=O)N[C@H]1CCNC(=O)[C@H]([C@@H](C)O)NC(=O)[C@H](CCN)NC(=O)[C@H](CCN)NC(=O)[C@H](CC(C)C)NC(=O)[C@@H](Cc2ccccc2)NC(=O)[C@H](CCN)NC1=O)[C@@H](C)O [polymyxin B, Polymyxin B sulphate salt] (X1-[Dab]T[Dab][Dab][Dab][dF]L[Dab][Dab]T; lactam 4-C)
Isolates in which a 1 log kill effect was observed [1]: 3/8 | Isolates in which a 2 log kill effect was observed [1]: 1/8 | Non-specific binding (NSB) ([2]; phosphate buffer spiked at 0.75 mg/L): 77% ± 8.3% | Non-specific binding (NSB) ([2]; phosphate buffer spiked at 8 mg/L): 20% ± 0.6% | Unbound fraction (plasma proteins): 8.6% | MIC90 (gram-negative pathogens): 0.5 to 1 µg/mL
